25 compounds from patent US9732032B2, “3-aminocyclopentane carboxamide derivatives” (Merck Patent GmbH, priority 2012, dated 2017) can be followed below.

T1 sequence (P49327 whole entry): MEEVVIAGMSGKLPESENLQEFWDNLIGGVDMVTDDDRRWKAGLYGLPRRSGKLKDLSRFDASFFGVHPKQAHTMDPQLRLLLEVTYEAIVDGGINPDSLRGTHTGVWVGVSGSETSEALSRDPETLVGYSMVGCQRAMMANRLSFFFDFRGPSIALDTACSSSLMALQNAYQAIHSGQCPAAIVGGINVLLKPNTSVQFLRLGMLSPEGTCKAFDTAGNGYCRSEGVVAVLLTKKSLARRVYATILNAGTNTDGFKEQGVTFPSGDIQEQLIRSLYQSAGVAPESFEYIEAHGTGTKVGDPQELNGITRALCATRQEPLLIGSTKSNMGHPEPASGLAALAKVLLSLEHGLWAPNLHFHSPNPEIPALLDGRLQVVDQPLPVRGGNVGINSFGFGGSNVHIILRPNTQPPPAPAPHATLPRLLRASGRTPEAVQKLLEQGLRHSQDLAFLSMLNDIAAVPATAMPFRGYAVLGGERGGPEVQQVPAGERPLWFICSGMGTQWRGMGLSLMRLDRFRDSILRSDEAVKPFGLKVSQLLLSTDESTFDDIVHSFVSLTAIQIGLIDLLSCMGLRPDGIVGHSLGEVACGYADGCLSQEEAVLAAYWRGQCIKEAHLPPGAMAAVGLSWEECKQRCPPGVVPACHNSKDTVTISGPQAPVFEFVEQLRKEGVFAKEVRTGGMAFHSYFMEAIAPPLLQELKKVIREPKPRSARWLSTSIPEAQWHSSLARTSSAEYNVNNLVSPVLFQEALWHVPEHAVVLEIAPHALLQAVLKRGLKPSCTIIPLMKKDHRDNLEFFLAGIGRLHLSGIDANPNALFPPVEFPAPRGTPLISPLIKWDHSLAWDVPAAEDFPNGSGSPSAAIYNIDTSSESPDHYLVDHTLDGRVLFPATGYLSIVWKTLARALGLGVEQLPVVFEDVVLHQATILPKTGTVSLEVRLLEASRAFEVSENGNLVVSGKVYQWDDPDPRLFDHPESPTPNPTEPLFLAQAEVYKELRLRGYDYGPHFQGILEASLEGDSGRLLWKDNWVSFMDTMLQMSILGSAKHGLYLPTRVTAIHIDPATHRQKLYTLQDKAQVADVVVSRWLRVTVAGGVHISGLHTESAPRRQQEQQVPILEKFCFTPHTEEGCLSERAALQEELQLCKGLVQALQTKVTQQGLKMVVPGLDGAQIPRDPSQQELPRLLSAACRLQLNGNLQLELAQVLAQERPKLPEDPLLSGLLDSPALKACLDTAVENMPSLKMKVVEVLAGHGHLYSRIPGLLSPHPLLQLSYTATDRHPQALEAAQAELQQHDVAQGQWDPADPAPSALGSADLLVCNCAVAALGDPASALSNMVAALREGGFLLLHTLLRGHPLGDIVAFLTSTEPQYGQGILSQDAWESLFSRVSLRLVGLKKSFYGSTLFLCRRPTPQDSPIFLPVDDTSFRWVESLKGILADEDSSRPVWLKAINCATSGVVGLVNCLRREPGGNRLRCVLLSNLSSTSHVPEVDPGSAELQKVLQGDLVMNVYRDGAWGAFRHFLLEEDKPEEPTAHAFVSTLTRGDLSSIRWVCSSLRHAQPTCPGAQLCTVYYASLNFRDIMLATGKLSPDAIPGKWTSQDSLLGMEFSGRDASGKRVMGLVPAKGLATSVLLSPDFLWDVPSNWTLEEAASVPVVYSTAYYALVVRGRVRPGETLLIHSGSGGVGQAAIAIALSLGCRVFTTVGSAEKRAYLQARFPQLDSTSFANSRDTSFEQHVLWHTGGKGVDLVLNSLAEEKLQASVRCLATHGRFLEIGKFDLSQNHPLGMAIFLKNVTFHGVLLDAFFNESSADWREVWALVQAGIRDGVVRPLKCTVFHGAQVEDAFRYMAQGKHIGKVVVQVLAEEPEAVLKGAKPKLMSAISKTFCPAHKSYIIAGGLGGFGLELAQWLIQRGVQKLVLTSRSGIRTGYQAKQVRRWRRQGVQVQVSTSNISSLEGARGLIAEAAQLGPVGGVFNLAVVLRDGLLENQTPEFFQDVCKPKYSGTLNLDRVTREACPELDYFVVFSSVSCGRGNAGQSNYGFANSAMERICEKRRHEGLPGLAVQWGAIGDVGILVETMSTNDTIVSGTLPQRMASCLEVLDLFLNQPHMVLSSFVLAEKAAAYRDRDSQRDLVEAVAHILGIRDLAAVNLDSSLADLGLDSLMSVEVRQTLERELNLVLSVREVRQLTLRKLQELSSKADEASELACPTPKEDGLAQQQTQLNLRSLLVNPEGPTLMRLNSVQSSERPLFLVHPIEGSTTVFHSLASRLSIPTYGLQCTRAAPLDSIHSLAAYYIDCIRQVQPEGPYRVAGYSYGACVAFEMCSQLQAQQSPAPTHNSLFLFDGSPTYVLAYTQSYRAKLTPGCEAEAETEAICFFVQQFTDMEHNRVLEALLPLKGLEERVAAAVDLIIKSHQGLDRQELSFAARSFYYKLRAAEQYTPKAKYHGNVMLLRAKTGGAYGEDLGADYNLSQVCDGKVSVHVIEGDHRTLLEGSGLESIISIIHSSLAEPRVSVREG

The assay has as its target T1, human recombinant full-length fatty acid synthase (FASN) (Homo sapiens, UniProt P49327).
T1 construct: human recombinant full-length fatty acid synthase; made in house; host or cells: SF9 cells
Briefly: Biochemical activity testing of human fatty acid synthase FASN (NADPH fluorescence intensity assay). To be noted: NADPH fluorescence decrease (ex 340 nm / em 460 nm), 30 minutes at room temperature, read-out: IC50 FASN (enzyme assay). From the text:
aq (aqueous), h (hour), g (gram), L (liter), mg (milligram), MHz (Megahertz), (melting point), eq (equivalent), mL (milliliter), L (microliter), ACN (acetonitrile), AcOH (acetic acid), CDCl3 (deuterated chloroform), CD3OD (deuterated methanol), CH3CN (acetonitrile), c-hex (cyclohexane), DCC (dicyclohexyl carbodiimide), DCM (dichloromethane), DIC (diisopropyl carbodiimide), DIEA (diisopropylethyl-amine), DMF (dimethylformamide), DMSO (dimethylsulfoxide), DMSO-d6 (deuterated dimethylsulfoxide), EDC (1-(3-dimethyl-amino-propyl)-3-ethylcarbodiimide), ESI (Electro-spray ionization), EtOAc (ethyl acetate), Et2O (diethyl ether), EtOH (ethanol), HATU (dimethylamino-([1,2,3]triazolo[4,5-b]pyridin-3-yloxy)-methylene]-dimethylammonium hexafluorophosphate), HPLC (High Performance Liquid Chromatography), i-PrOH (2-propanol), K2CO3 (potassium carbonate), LC (Liquid Chromatography), MeOH (methanol), MgSO4 (magnesium sulfate), MS (mass spectrometry), MTBE (Methyl tert-butyl ether), NaHCO3 (sodium bicarbonate), NaBH4 (sodium borohydride), NMM (N-methyl morpholine), NMR (Nuclear Magnetic Resonance), PyBOP (benzotriazole-1-yl-oxy-trispyrrolidino-phosphonium hexafluorophosphate), RT (room temperature), Rt (retention time), SPE (solid phase extraction), TBTU (2-(1-H-benzotriazole-1-yl)-1,1,3,3-tetramethyluromium tetrafluoro borate), TEA (triethylamine), TFA (trifluoroacetic acid), THF (tetrahydrofuran), TLC (Thin Layer Chromatography), UV (Ultraviolet). Description of the In Vitro Assays Abbreviations: GST=Glutathione-S-transferase FRET=Fluorescence resonance energy transfer HTRF®=(homogenous time resolved fluorescence) HEPES=4-(2-hydroxyethyl)-1-piperazine ethanesulfonic acid buffer DTT=Dithiothreitol BSA=bovine serum albumin CHAPS=detergent; CHAPS=3[(3-cholamidopropyl)dimethylammonio]-1-propanesulfonate Biochemical Activity Testing of Human Fatty Acid Synthase FASN
Fatty acid synthase FASN is a multifunctional enzyme with seven catalytic activities thereby synthesising long chain fatty acids especially palmitoyl-CoA in the presence of co-factor NADPH starting from the substrates acetyl-CoA and malonyl-CoA. The reductive synthesis is realized by the oxidation of NADPH to NADP. Since NADPH has a high fluorescence intensity quantum yield compared to NADP with excitation at 340 nm and emission at 460 nm, the reaction can be monitored via the decrease in fluorescence intensity. The biochemical FASN activity testing was performed as 384 well two-time-point kinetic fluorescence intensity assay format in Greiner low volume medium binding 384-well black microtiter plates in a total assay volume of 8 μl and was used for high throughput screen. In each well 3 μl 40 nM human recombinant full-length fatty acid synthase (produced in-house in SF9 cells) were dispensed in the following assay buffer: 50 mM potassium phosphate buffer pH 7.0, 0.005% (w/v) BSA, 2 mM Glutathione, 0.02% Tween-20. Then 2 μl of 200 μM NADPH in assay buffer were added, followed by the addition of the test compounds in 10 dilution concentrations starting with 30 μM (final concentration) to get a final DMSO content of 1% (v/v). The mixture was incubated for at least 15 min at room temperature. After the pre-incubation the enzymatic reaction was started by the addition of 2 μl substrate solution (80 μM acetyl-CoA, 240 μM malonyl-CoA). A first fluorescence intensity measurement (time point one) was performed with an Envision multimode reader (Perkin Elmer LAS Germany GmbH) at excitation wavelength 340 nm (lamp mode) and emission wavelength 460 nm. The reaction was incubated for 30 minutes at room temperature. After this the fluorescence intensity was measured again in the Envision using the same parameters as described above (second time point measurement). The data were analysed by subtracting the first time point measurement value from the second time point measurement value (after the enzymatic reaction). The differences of the emission signals were determined. […]
As usually defined, the IC50 is the concentration that gives 50% inhibition. For `CCNC(=O)[C@H]1CC[C@@H](N(C)C(=O)c2ccc(-c3ccccc3S(N)(=O)=O)cc2)C1` [Compound A61, 2′-sulfamoyl-biphenyl-4-carboxylic acid ((1R,3S)-3-ethylcarbamoyl-cyclopentyl)-methyl-amide], the IC50 was less than 0.3 µM.

For the compound `CCNC(=O)[C@H]1CC[C@@H](N(C)C(=O)c2ccc(-c3ccc(Cl)cc3)cc2)C1` [Compound A62, 4′-chloro-biphenyl-4-carboxylic acid ((1R,3S)-3-ethylcarbamoyl-cyclopentyl)-methyl-amide], the half-maximal inhibitory concentration (IC50) is less than 0.3 µM.

For the compound `CCNC(=O)[C@H]1CC[C@@H](N(C)C(=O)c2ccc(-c3ccc(F)cc3F)cc2)C1` [Compound A63, 2′,4′-difluoro-biphenyl-4-carboxylic acid ((1R,3S)-3-ethylcarbamoyl-cyclopentyl)-methyl-amide], the IC50 is less than 0.3 µM.

In the case of `CCNC(=O)[C@H]1CC[C@@H](N(C)C(=O)c2ccc(-c3ccccc3C(F)(F)F)cc2)C1` [Compound A64, 2′-trifluoromethyl-biphenyl-4-carboxylic acid ((1R,3S)-3-ethylcarbamoyl-cyclopentyl)-methyl-amide], the half-inhibitory concentration (IC50) is less than 0.3 µM.

In the case of `CCNC(=O)[C@H]1CC[C@@H](N(C)C(=O)c2ccc(-c3ccccc3C)c(C)c2)C1` [Compound A65, 2,2′-dimethyl-biphenyl-4-carboxylic acid ((1R,3S)-3-ethylcarbamoyl-cyclopentyl)-methyl-amide], the IC50 was less than 0.3 µM.

With `CN(C(=O)c1ccc(-c2ccccc2)cc1)[C@@H]1CC[C@H](C(=O)NC2(C)CC2)C1` [Compound A67, biphenyl-4-carboxylic acid methyl-[(1R,3S)-3-(1-methyl-cyclopropylcarbamoyl)-cyclopentyl]-amide], the IC50 was less than 0.3 µM.

Regarding `CN(C(=O)c1ccc(-c2nc3ccccc3o2)cc1)[C@@H]1CC[C@H](C(=O)NC2(C)CC2)C1` [Compound A68, 4-benzoxazol-2-yl-N-methyl-N-[(1R,3S)-3-(1-methyl-cyclopropylcarbamoyl)-cyclopentyl]-benzamide], the IC50 is less than 0.3 µM.

In the case of `CCNC(=O)[C@H]1CC[C@@H](N(C)C(=O)c2ccc(C#Cc3ccc(OC)cc3)cc2)C1` [Compound A69, N-((1R,3S)-3-ethylcarbamoyl-cyclopentyl)-4-(4-methoxy-phenylethynyl)-N-methyl-benzamide], the half-inhibitory concentration (IC50) is less than 0.3 µM.

Take `CCNC(=O)[C@H]1CC[C@@H](N(C)C(=O)c2ccc(C#Cc3ccncc3)cc2)C1` [Compound A70, N-((1R,3S)-3-ethylcarbamoyl-cyclopentyl)-N-methyl-4-pyridin-4-ylethynyl-benzamide]: the half-maximal inhibitory concentration (IC50) was less than 0.3 µM.

`CN(C(=O)c1ccc(-c2nc3ccccc3s2)cc1)[C@@H]1CC[C@H](C(=O)NC2(C)CC2)C1` [Compound A71, 4-benzothiazol-2-yl-N-methyl-N-[(1R,3S)-3-(1-methyl-cyclopropylcarbamoyl)-cyclopentyl]-benzamide]: the 50% inhibitory concentration (IC50) is less than 0.3 µM.

Consider `CN(C(=O)c1ccc(C#Cc2ccc(F)cc2)cc1)[C@@H]1CC[C@H](C(=O)NC2(C)CC2)C1` [Compound A72, 4-(4-fluoro-phenylethynyl)-N-methyl-N-[(1R,3S)-3-(1-methyl-cyclopropylcarbamoyl)-cyclopentyl]-benzamide], for which the half-inhibitory concentration (IC50) was less than 0.3 µM.

For `CCCC1(NC(=O)[C@H]2CC[C@@H](N(C)C(=O)c3ccc(-c4nc5ccccc5o4)cc3)C2)CC1` [Compound A73, 4-benzoxazol-2-yl-N-methyl-N-[(1R,3S)-3-(1-propyl-cyclopropylcarbamoyl)-cyclopentyl]-benzamide], the IC50 was 0.3 to 3 µM.

Turning to `CC[C@H](C)NC(=O)[C@H]1CC[C@@H](N(C)C(=O)c2ccc(-c3nc4ccccc4o3)cc2)C1` [Compound A74, 4-(1,3-benzoxazol-2-yl)-N-methyl-N-[(1R,3S)-3-[[(1S)-1-methylpropyl]-carbamoyl]cyclopentyl]benzamide], the half-maximal inhibitory concentration (IC50) is less than 0.3 µM.

Turning to `CC[C@@H](C)NC(=O)[C@H]1CC[C@@H](N(C)C(=O)c2ccc(-c3nc4ccccc4o3)cc2)C1` [Compound A75, 4-(1,3-benzoxazol-2-yl)-N-methyl-N-[(1R,3S)-3-[[(1R)-1-methylpropyl]-carbamoyl]cyclopentyl]benzamide], the half-maximal inhibitory concentration (IC50) was less than 0.3 µM.

Take `CN(C(=O)c1ccc(-c2nc3ccccc3o2)cc1)[C@@H]1CC[C@H](C(=O)NC2CCC2)C1` [Compound A76, 4-(1,3-benzoxazol-2-yl)-N-[(1R,3S)-3-(cyclobutylcarbamoyl)cyclopentyl]-N-methyl-benzamide]: the IC50 was less than 0.3 µM.

For the compound `CN(C(=O)c1ccc(-c2nc3ccccc3o2)cc1)[C@@H]1CC[C@H](C(=O)N[C@H]2C[C@H](O)C2)C1` [Compound A77, 4-(1,3-benzoxazol-2-yl)-N-[(1R,3S)-3-[(trans-3-hydroxycyclobutyl)-carbamoyl]cyclopentyl]-N-methyl-benzamide], the IC50 is less than 0.3 µM.

Consider `CN(C(=O)c1ccc(-c2nc3ccccc3o2)cc1)[C@@H]1CC[C@H](C(=O)N[C@H]2C[C@@H](O)C2)C1` [Compound A78, 4-(1,3-benzoxazol-2-yl)-N-[(1R,3S)-3-[(cis-3-hydroxycyclobutyl)-carbamoyl]cyclopentyl]-N-methyl-benzamide], for which the IC50 was less than 0.3 µM.

With `COc1cc(-c2nc3ccccc3o2)ccc1C(=O)N(C)[C@@H]1CC[C@H](C(=O)NC2(C)CC2)C1` [Compound A79, 4-(1,3-benzoxazol-2-yl)-2-methoxy-N-methyl-N-[(1R,3S)-3-[(1-methylcyclopropyl)carbamoyl]cyclopentyl]benzamide], the IC50 was 0.3 to 3 µM.

For `CN(C(=O)c1ccc(-c2ccncc2)cc1)[C@@H]1CC[C@H](C(=O)NC2(C)CC2)C1` [Compound A80, N-methyl-N-[(1R,3S)-3-[(1-methylcyclopropyl)carbamoyl]cyclopentyl]-4-(4-pyridyl)benzamide], the IC50 is less than 0.3 µM.

For the compound `CN(C(=O)c1ccc(-c2ccc(C#N)cc2)cc1)[C@@H]1CC[C@H](C(=O)NC2(C)CC2)C1` [Compound A81, 4-(4-cyanophenyl)-N-methyl-N-[(1R,3S)-3-[(1-methylcyclopropyl)-carbamoyl]cyclopentyl]benzamide], the 50% inhibitory concentration (IC50) is less than 0.3 µM.

In the case of `CN(C)C(=O)[C@H]1CC[C@@H](N(C)C(=O)c2ccc(-c3nc4ccccc4o3)cc2)C1` [Compound A82, 4-benzoxazol-2-yl-N-((1R,3S)-3-dimethylcarbamoyl-cyclopentyl)-N-methyl-benzamide], the IC50 lay in the range of 0.3 to 3 µM.

Regarding `CN(C(=O)c1ccc(-c2cccnc2)cc1)[C@@H]1CC[C@H](C(=O)NC2(C)CC2)C1` [Compound A83, N-methyl-N-[(1R,3S)-3-(1-methyl-cyclopropylcarbamoyl)-cyclopentyl]-4-pyridin-3-yl-benzamide], the concentration for half-maximal inhibition (IC50) is less than 0.3 µM.

`CN(C(=O)c1ccc(-c2nc3ccccc3o2)cc1)[C@@H]1CC[C@H](C(=O)NC2(C)CCC2)C1` [Compound A84, 4-benzoxazol-2-yl-N-methyl-N-[(1R,3S)-3-(1-methyl-cyclobutylcarbamoyl)-cyclopentyl]-benzamide]: the IC50 is less than 0.3 µM.

With `COc1cc(C(=O)N(C)[C@@H]2CC[C@H](C(=O)NC3(C)CC3)C2)ccc1-c1nc2ccccc2o1` [Compound A85, 4-benzoxazol-2-yl-3-methoxy-N-methyl-N-[(1R,3S)-3-(1-methyl-cyclopropylcarbamoyl)-cyclopentyl]-benzamide], the IC50 is less than 0.3 µM.

On to `CN(C(=O)c1ccc(-c2nc3ccccc3o2)cc1)[C@@H]1CC[C@H](C(N)=O)C1` [Compound A86, 4-benzoxazol-2-yl-N-((1R,3S)-3-carbamoyl-cyclopentyl)-N-methyl-benzamide], for which the IC50 was in the range of 0.3 to 3 µM.
